{"source": "patent US20250170132A1", "about": "“SALTS AND POLYMORPHIC FORMS OF MENIN INHIBITORS AND PHARMACEUTICAL COMPOSITIONS THEREOF” (Syndax Pharmaceuticals, Inc., priority 2023, published 2025)", "key": {"[1]": {"experiment": "Dynamic vapor sorption (DVS) at 25° C. and RH up to 90%", "assay_type": "physicochemical", "experimental": "FIG. 4 depicts a DVS of Compound A monocitrate monohydrate Form A salt at 25° C. and RH up to 90%."}, "[2]": {"experiment": "Plasma pharmacokinetics of compound A after twice daily dosing", "assay_type": "in vivo"}, "[3]": {"experiment": "Slurry and solvent evaporation polymorph experiments of Compound A citrate salt (Table 9)", "assay_type": "physicochemical", "experimental": "Based on the approximate solubility data of Compound A citrate salt, 18 polymorph experiments were started at RT with stirring (Table 9). Wet cakes from the slurry experiments were analyzed after 5 days of stirring. Wet cake XRPD patterns were checked and materials showing no pattern change were heated from RT to 50° C.\nProcedure • 1) Slurry at RT: ˜35 mg citrate salt was slurried in different solvents in 4 mL vials using a magnetic stirrer at RT. The solids in slurry were characterized by XRPD after 3-5 days. • 2) Slurry at 50° C.: Slurries with no change in wet cake XRPD pattern when compared to starting material were heated from RT to 50° C. Samples were analyzed after 2-3 days of stirring.\nWet cake samples were isolated and kept at 25° C. for 2 h for drying. After drying, samples were analyzed by XRPD."}, "[4]": {"experiment": "Polymorph screening of Compound A citrate salt, form conversion (XRPD, DSC/TGA, DVS)", "assay_type": "physicochemical", "conditions": "drying of wet cake (Form B); presence of water (Form C)"}, "[5]": {"experiment": "Form C screening experiments", "assay_type": "physicochemical", "conditions": "Exp. 16: 40 mg in water 0.1 mL, RT; CL → HSL"}, "[6]": {"experiment": "Form C water activity study in MeCN/water", "assay_type": "physicochemical", "experimental": "Water activity study in MeCN/water: A water activity investigation was conducted utilizing a MeCN/water system. […] Subsequently, Form A seeds were introduced into vials with water activities between 0.01 and 0.6. […] The solids were isolated and subjected to vacuum drying at room temperature overnight."}, "[7]": {"experiment": "Form C slurry conditioning in EtOH/water (95/5)", "assay_type": "physicochemical"}, "[8]": {"experiment": "Form C characterization and relative stability of the forms", "assay_type": "physicochemical", "source_text": "Moreover, HNMR studies validated a 1:1 stoichiometry between the freebase and acid."}, "[9]": {"conditions": "about 163 mg twice daily in combination with a CYP3A4 inhibitor (e.g., a strong CYP3A4 inhibitor)"}}, "data": [{"smiles": "CCN(C(=O)c1cc(F)ccc1Oc1cncnc1N1CC2(CCN(C[C@H]3CC[C@H](NS(=O)(=O)CC)CC3)CC2)C1)C(C)C.O.O=C(O)CC(O)(CC(=O)O)C(=O)O", "values": [{"measurement": "water absorbed (DVS)", "setting": "[1]; 25° C., from 0% to 90% relative humidity", "result": "about 1.9%"}, {"measurement": "hygroscopicity", "setting": "[1]; DVS at 25° C. and RH up to 90%", "result": "not hygroscopic"}, {"measurement": "area under plasma concentration versus time curve from time 0 to 12 hours (AUC(0-12h)) of compound A", "setting": "[2]; [9]", "result": "about 22610 ng·h/mL"}, {"measurement": "maximum plasma concentration (Cmax) of compound A", "setting": "[2]; [9]", "result": "about 3220 ng/mL"}, {"measurement": "area under plasma concentration versus time curve from time 0 to 12 hours (AUC(0-12h)) of compound A", "setting": "[2]; about 276 mg twice daily", "result": "about 10150 ng·h/mL"}, {"measurement": "maximum plasma concentration (Cmax) of compound A", "setting": "[2]; about 276 mg twice daily", "result": "about 2052 ng/mL"}, {"measurement": "Form", "setting": "[3]; 1,4-dioxane/H2O (7:3), solvent evaporation", "result": "Form A (FIG. 19)"}, {"measurement": "Form", "setting": "[3]; Propanol/H2O (7:3), solvent evaporation", "result": "Form A (FIG. 19)"}, {"measurement": "Form", "setting": "[3]; THF/H2O (7:3), solvent evaporation", "result": "Amorphous (FIG. 19)"}, {"measurement": "Form", "setting": "[3]; slurry, 1,4-dioxane/H2O (7:3)", "result": "Form A (FIG. 18)"}, {"measurement": "Form", "setting": "[3]; slurry, 2-Me-THF, starting material a 1:1 mixture (footnote)", "result": "Form A (FIG. 18)"}, {"measurement": "Form", "setting": "[3]; slurry, Acetone/H2O (7:3)", "result": "Form A (FIG. 18)"}, {"measurement": "Form", "setting": "[3]; slurry, DCM", "result": "Form A (FIG. 17)"}, {"measurement": "Form", "setting": "[3]; slurry, EtOAc", "result": "Form A (FIG. 17)"}, {"measurement": "Form", "setting": "[3]; slurry, H2O", "result": "Form A (FIG. 18)"}, {"measurement": "Form", "setting": "[3]; slurry, IPAc", "result": "Form A (FIG. 18)"}, {"measurement": "Form", "setting": "[3]; slurry, MEK", "result": "Form A (FIG. 17)"}, {"measurement": "Form", "setting": "[3]; slurry, MTBE", "result": "Form A (FIG. 18)"}, {"measurement": "Form", "setting": "[3]; slurry, MeCN", "result": "Form C (FIG. 14)"}, {"measurement": "Form", "setting": "[3]; slurry, MeOH or EtOH, after air dry", "result": "dry→Form A (FIG. 16)"}, {"measurement": "Form", "setting": "[3]; slurry, MeOH or EtOH, wet cake", "result": "Form B (Wet cake)→ air"}, {"measurement": "Form", "setting": "[3]; slurry, Propanol/H2O (7:3)", "result": "Form A (FIG. 18)"}, {"measurement": "Form", "setting": "[3]; slurry, THF", "result": "Form A (FIG. 17)"}, {"measurement": "Form", "setting": "[3]; slurry, Toluene", "result": "Form A (FIG. 17)"}]}, {"smiles": "CCN(C(=O)c1cc(F)ccc1Oc1cncnc1N1CC2(CCN(CC3CCC(NS(=O)(=O)CC)CC3)CC2)C1)C(C)C.O=C(O)CC(O)(CC(=O)O)C(=O)O", "note": "(stereo not shown) [Form C]", "values": [{"measurement": "stability of polymorphic form / conversion", "setting": "[4]", "result": "unstable and converts to Form A in presence of water"}, {"measurement": "Form conversion", "setting": "[3]; dried solid, upon exposure to humidity", "result": "converts to Form A upon exposure to humidity"}, {"measurement": "Crystal Form", "setting": "[5]", "result": "Form A"}, {"measurement": "XRPD", "setting": "[6]; Exp. 1: Form C 40 mg, MeCN/water aw 0.01, RT, no Form A seed", "result": "Form C"}, {"measurement": "XRPD", "setting": "[6]; Exp. 1a: MeCN/water aw 0.01, RT, Form A seed 20 mg added", "result": "Form C"}, {"measurement": "XRPD", "setting": "[6]; Exp. 2: Form C 40 mg, MeCN/water aw 0.22, RT, no Form A seed", "result": "Form C"}, {"measurement": "XRPD", "setting": "[6]; Exp. 2a: MeCN/water aw 0.22, RT, Form A seed 20 mg added", "result": "Form C"}, {"measurement": "XRPD", "setting": "[6]; Exp. 3: Form C 40 mg, MeCN/water aw 0.41, RT, no Form A seed", "result": "Form C"}, {"measurement": "XRPD", "setting": "[6]; Exp. 3a: MeCN/water aw 0.41, RT, Form A seed 20 mg added", "result": "Form C"}, {"measurement": "XRPD", "setting": "[6]; Exp. 4: Form C 40 mg, MeCN/water aw 0.59, RT, no Form A seed", "result": "Form C"}, {"measurement": "XRPD", "setting": "[6]; Exp. 4a: MeCN/water aw 0.59, RT, Form A seed 20 mg added", "result": "Form C"}, {"measurement": "Form (XRPD) after addition of Form A seeds", "setting": "[6]; MeCN/water, water activities 0.01 to 0.6, overnight stirring", "result": "match with the Form C"}, {"measurement": "Form stability (XRPD of wet cake)", "setting": "[6]; MeCN/water, water activities 0.01 to 0.8, RT, overnight stirring", "result": "remained stable"}, {"measurement": "Form (XRPD) of isolated vacuum-dried solids", "setting": "[6]; water activity levels of 0.01-0.6", "result": "consistent with Form C"}, {"measurement": "Form (XRPD) of isolated vacuum-dried solids", "setting": "[6]; water activity of 0.8", "result": "combination of Form C and Form A"}, {"measurement": "Form conversion on slurry conditioning", "setting": "[7]; EtOH/water (95/5), overnight stirring", "result": "converted to Form A"}, {"measurement": "XRPD", "setting": "[7]; Exp. 1: Form C 40 mg, EtOH/water (95/5) 0.2, RT, no Form A seed, slurry overnight", "result": "Form A"}, {"measurement": "XRPD", "setting": "[7]; Exp. 2: Form C, EtOH/water (95/5), RT, Form A seed 20 mg", "result": "Form A"}, {"measurement": "XRPD profile after heating", "setting": "[8]; heating to 110° C.", "result": "aligned with that of Form C"}, {"measurement": "Solid recovered from water", "setting": "[8]; overnight stirring in water at RT", "result": "Form A was recrystallized"}, {"measurement": "XRPD pattern after drying", "setting": "[8]; post-vacuum drying at room temperature", "result": "remained unchanged"}, {"measurement": "Form conversion", "setting": "[8]; water and EtOH/water (95/5 v/v)", "result": "transitions to Form A"}]}]}
